Publication PMC8538513, “Inhibition of Matrix Metalloproteinases and Cancer Cell Detachment by Ru(II) Polypyridyl Complexes Containing 4,7-Diphenyl-1,10-phenanthroline Ligands—New Candidates for Antimetastatic Agents” (Pharmaceuticals, 2021)

Tests used:
MMP-2 = molecular target: T1, MMP-2 (Homo sapiens, UniProt P08253); assay: MMP-2 inhibition, fluorogenic substrate FS-6; format: biochemical; settings: [FS-6] = 2.5 µM, [enzyme] = 0.5 nM, 0.1 M Tris, pH 7.4, 37 °C; n.i. = no inhibition in the studied range (>> 25 µM, for NAMI-A >> 600 µM)
T1 construct: purchased Sigma-Aldrich
T1 sequence (P08253 110-660): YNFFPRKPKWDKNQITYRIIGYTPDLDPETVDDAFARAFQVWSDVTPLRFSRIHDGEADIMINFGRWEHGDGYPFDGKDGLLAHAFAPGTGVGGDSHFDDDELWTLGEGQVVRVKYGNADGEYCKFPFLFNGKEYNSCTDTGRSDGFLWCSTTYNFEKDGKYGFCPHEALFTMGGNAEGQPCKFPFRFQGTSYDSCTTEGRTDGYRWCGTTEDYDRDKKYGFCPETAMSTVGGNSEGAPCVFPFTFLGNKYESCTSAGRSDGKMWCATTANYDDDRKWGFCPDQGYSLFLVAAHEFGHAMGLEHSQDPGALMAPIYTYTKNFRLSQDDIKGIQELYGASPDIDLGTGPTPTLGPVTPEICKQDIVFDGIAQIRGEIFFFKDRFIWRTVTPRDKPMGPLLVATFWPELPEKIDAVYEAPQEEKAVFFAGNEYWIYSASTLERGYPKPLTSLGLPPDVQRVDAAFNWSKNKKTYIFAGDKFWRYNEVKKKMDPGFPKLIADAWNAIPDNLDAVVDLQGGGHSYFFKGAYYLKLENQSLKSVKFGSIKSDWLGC
Method: (§1) MMP-9 and MMP-2 were activated at 4 °C using 1 mM APMA overnight before the experiments. MMP-2 and MMP-9 assays were performed in 0.1 M Tris/HCl (pH 7.4, 37 °C) enriched with 0.1 M NaCl, 10 mM CaCl2, 0.1 mM ZnCl2 and 0.05% Brij35. […] Kinetic fluorescence measurements were performed using a Perkin Elmer LS55 spectrofluorimeter (λex/λem = 325/400 nm). The obtained fluorescence intensities were corrected due to inner filter effect according to the following equation [31]: […] where Fobs denotes the measured fluorescence intensity, while Aλem and Aλex are the absorbance of sample at emission and excitation wavelengths.
(§2) The enzyme activity in the presence of inhibitors was expressed as a fraction of initial reaction rate (vi/v0 ratio, v0—initial reaction rate, vi—initial reaction rate in the presence of inhibitor). IC50 parameters were calculated from a dose-response plot of enzyme fractional activity as a function of inhibitor concentration, using the Hill equation (OriginPro2018). Experiments were repeated three times and results are presented as mean values and standard deviation of the mean.

MMP-9 [1] = molecular target: T2, MMP-9 (Homo sapiens, UniProt P14780); assay: MMP-9 inhibition, fluorogenic substrate FS-6; format: biochemical; settings: [FS-6] = 2.5 µM, [enzyme] = 0.5 nM, 0.1 M Tris, pH 7.4, 37 °C, fluorescence assay; n.i. = no inhibition in the studied range (>> 25 µM, for NAMI-A >> 600 µM)
T2 construct: purchased Sigma-Aldrich
T2 sequence (P14780 107-707 limits assumed): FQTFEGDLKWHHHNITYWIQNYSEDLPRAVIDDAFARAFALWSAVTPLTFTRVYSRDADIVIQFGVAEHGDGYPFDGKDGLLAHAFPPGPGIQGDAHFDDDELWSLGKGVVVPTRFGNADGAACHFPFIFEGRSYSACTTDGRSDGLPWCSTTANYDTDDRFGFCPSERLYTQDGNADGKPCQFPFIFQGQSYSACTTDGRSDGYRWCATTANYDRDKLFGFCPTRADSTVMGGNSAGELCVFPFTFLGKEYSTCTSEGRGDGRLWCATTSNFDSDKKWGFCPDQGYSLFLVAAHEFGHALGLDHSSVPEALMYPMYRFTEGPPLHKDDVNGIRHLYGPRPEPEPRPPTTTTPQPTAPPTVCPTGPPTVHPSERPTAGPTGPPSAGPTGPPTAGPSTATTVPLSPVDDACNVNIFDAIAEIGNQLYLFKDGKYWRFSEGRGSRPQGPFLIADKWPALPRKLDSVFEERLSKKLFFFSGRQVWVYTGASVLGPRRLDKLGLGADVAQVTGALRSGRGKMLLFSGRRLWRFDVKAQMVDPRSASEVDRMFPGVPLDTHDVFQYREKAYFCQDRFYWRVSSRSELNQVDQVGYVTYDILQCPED
Method: as §1, §2

A549 cells [2] = assay: Cytotoxicity, MTT assay; format: cell-based, human
Method: In vitro studies were conducted using human lung adenocarcinoma A549 cell line. Cells were routinely cultured in Dulbecco’s Modified Eagle Medium (DMEM, Corning, Corning, NY, USA) supplemented with 10% fetal bovine serum (FBS, Eurx, Gdańsk, Poland) (v/v) and 1% penicillin-streptomycin (100 units/mL–100µg/mL, Corning) (v/v) and incubated at 37 °C in humidified atmosphere with 5% CO2 (v/v). The cytotoxicity of the Ru(II) complexes was evaluated using MTT assay (Sigma-Aldrich). Cells were seeded into 96-well plate with the density of 3 × 10^4 cells per cm^2 in complete medium and cultured for 24 h. Then medium was removed and various concentrations of the studied compounds in basic medium were added. The final DMSO concentration in cell culture was fixed at 0.1% (v/v). […] After the incubation, MTT was removed, and the formed violet formazan crystals were dissolved in the 100 µL of DMSO:methanol (1:1) mixture. […] Experiments were performed in triplicates and repeated three times.

A549 cells [3] = assay: Trypsin resistance assay (cell adherence); format: cell-based, human
Method: Cells susceptibility to detachment upon incubation with the studied compounds was evaluated by checking their resistance to trypsin treatment. Cells were seeded into 96-well plate with the density of 3 × 10^4 cells per cm^2 in complete medium and cultured for 24 h. Then, cells were incubated with various concentrations of the studied compounds for 24 h. Subsequently, the cells were washed and 30 µL trypsin solution (0.05%) was added to each well for 10 min incubation at 37 °C. Next, cells were washed with PBS and Alamar Blue assay was performed to quantify adherent cells. The received results were normalized with appropriate wells without the trypsin treatment to exclude the possible toxicity of the studied compounds and presented as a percentage of control (untreated) cells. Experiments were performed in triplicates and each experiment was repeated five times to obtain mean values and standard error of the mean.

A549 cells [4] = assay: Cellular uptake of ruthenium (ICP-MS); format: cell-based, human; settings: 1 µM complex, 24 h
Method: For cellular uptake A549 cells were seeded in a 6-well plate with the density of 4 × 10^4 cells per cm^2 in complete medium and cultured for 24 h. […] Any dead cells were eliminated by washing cells’ monolayer with PBS. Subsequently, the incubated cells were washed, detached by trypsin treatment and counted. The cells were isolated by centrifugation and digested in concentrated nitric acid overnight at room temperature. The solutions were diluted with Millipore water to a final nitric acid concentration of 2%. The Ru content in the samples was measured by inductively coupled plasma mass spectrometry (ICP-MS) using NexION 2000C (Perkin Elmer). Experiments were repeated three times. Results were calculated as ruthenium concentration per cell and presented as mean values and standard deviation of mean. Similarly, the content of Ru ions was measured in subcellular fraction obtained as described in chapter 4.5.

MMP-9 [5] = assay: Western blot, expression of the active form of MMP-9; format: cell-based, human; settings: A549 cells, 24 h, 100 µM, normalized to β-actin
Method: A549 cells were seeded in a 25 cm^2 flask with the density of 1.25 × 10^6 cells per flask in complete medium and cultured for 24 h. […] After the incubation, cells were washed with ice-cold PBS and lysed using RIPA buffer containing Halt proteases inhibitor cocktail (Thermo Fisher Scientific). Protein samples (the same concentration per lane) were separated on a 12% sodium dodecyl sulfate polyacrylamide gel. PageRuler™ Prestained Protein Ladder (Thermo Fisher Scientific) was used to determine approximate molecular weights of resolved proteins. Electrophoresis was performed through the stacking gel for 25 min at 60 V and resolving gel for 50 min at 170 V at room temperature using a PowerPac™ Basic Power Supply (Bio-Rad, Inc., Hercules, CA, USA). […] Reactive protein was detected after membrane was washed three times in TBST using GE Healthcare Amersham™ ECL Prime Western Blotting Detection Reagent (GE Healthcare Inc., Chicago, IL, USA). Only one protein was detected at a time, each membrane was stripped in 0.2 M NaOH over 20 min, washed three times in water and blocked again before proceeding with another primary antibody. Data were collected by ChemiDoc XRS+ Imaging System (Bio-Rad, Inc., Hercules, CA, USA) and analyzed with Image Lab v. […]

B16F10 melanoma cells = test system: B16F10 melanoma cells; parameters: method as in PMID 16368900; settings: 100 µM; cited from earlier work
A549 cells [6] = settings: cited from earlier work

Work on [Ru+2].c1ccc(-c2ccccn2)nc1.c1ccc(-c2ccnc3c2ccc2c(-c4ccccc4)ccnc23)cc1.c1ccc(-c2ccnc3c2ccc2c(-c4ccccc4)ccnc23)cc1 [[Ru(dip)2(bpy)]^2+] yielded an IC50 (MMP-2) of 22.5 ± 2 µM and an IC50 (MMP-9 [1]) of 6.2 ± 2.8 µM.
For CNC(=O)[C@H](Cc1c[nH]c2ccccc12)NC(=O)[C@@H](CC(=O)NO)CC(C)C [GM6001], the “Toxicity at the concentration used” value (A549 cells [2]; 1–8 µM) was “non-toxic concentration” and the “Effect on cell adhesion properties (in words)” value (A549 cells [3]; GM6001 1–8 µM) was “no alteration in cell adhesion properties was observed”.
With [Ru+2].c1ccc(-c2ccnc3c2ccc2c(-c4ccccc4)ccnc23)cc1.c1ccc(-c2ccnc3c2ccc2c(-c4ccccc4)ccnc23)cc1.c1ccc(-c2ccnc3c2ccc2c(-c4ccccc4)ccnc23)cc1 [[Ru(dip)3]^2+] the “Cytotoxicity (IC50)” value (A549 cells [2]; 24 h incubation, MTT) was “most cytotoxic compound”, the “Increase of ruthenium concentration in a cell (uptake)” value (A549 cells [4]) was “highest uptake by cells” and the “Effect on cell adhesion / cell detachment (in words)” value (A549 cells [3]; 24 h, non-toxic concentrations, effect seen from 1 µM) was “high activity in inhibiting of cell detachment”. The IC50 (MMP-2) was 8.3 ± 1.1 µM and the IC50 (MMP-9 [1]) was 4.1 ± 1.6 µM.
For CS(C)=O.[Cl-].[Cl-].[Cl-].[Cl-].[Ru+3].c1c[nH+]c[nH]1.c1c[nH]cn1 [NAMI-A, trans-[tetrachlorido(1H-imidazole)(S-dimethylsulphoxide)ruthenate(III)]], the “Cell adherence (adhesion strength) compared to control” value (A549 cells [3]; NAMI-A 100 µM) was “ca. 250%”, the “Reduction of expression of active MMP-9” value (MMP-9 [5]) was 43% and the “IC50 for MMP-2” value (MMP-2) was “no inhibitory properties and n.i”. The “IC50 for MMP-9” value (MMP-9 [1]) was “no inhibitory properties and n.i” and the “Adhesion strength vs. control” value (B16F10 melanoma cells) was “up to 162 % vs. control”.
In the case of N.N.[Cl][Pt][Cl] [cisplatin], the IC50 (A549 cells [6]) is listed as 70 µM.
